Read-outs that look alike come from different tables or passages of the source.
Columns and labels:
[1] = biological target: T1, PARP1 (Homo sapiens, UniProt P09874); assay: Steady-state kinetic analysis of the PARP1 enzymatic reaction; type: biochemical; details: for Type of inhibition: Vmax decreased, KM increased
T1 construct: made in house; host or cells: insect cells
Procedure: (§1) The four efficient inhibitors of PARP1 (compounds 8, 12, 13, and 14) were further examined by detailed kinetic experiments to determine the type of inhibition and the inhibition constants. […] The kinetics experiments of the PARylation reaction were performed at varied concentrations of the NAD^+ substrate and three–four different fixed concentrations of the inhibitor. The kinetic parameters of the reaction (Vmax and KM) were calculated by fitting the Michaelis–Menten equation to the kinetic data. The type of inhibition was determined by analyzing the dependences of Vmax and KM on the concentration of the inhibitor in linearizing coordinates (Figure S3). All the compounds had decreased Vmax and increased KM values as the inhibitor concentration increased (panels A−E), indicating a mixed type of inhibition, which was further evidenced by the double reciprocal plots of kinetic data (panel F). From these experiments, the inhibition constants reflecting the affinity of inhibitors to the NAD^+ binding pocket of free enzymes were determined (Table 2).
(§2) To determine the apparent maximum rate of enzymatic reaction (Vmax), Michaelis constant (KM), and possible inhibition mechanism, steady-state kinetic experiments were performed at […] fixed concentrations of the substrate, in the absence and presence of different fixed concentrations of the inhibitor. The standard reaction mixtures (10 μL) contained 100 μM, 300 μM, 500 μM, 1 mM, or 2 mM NAD^+; a tested PARP1/PARP2 inhibitor specified for each compound (Figure S3); the recombinant human enzyme PARP1 (200 nM) or murine PARP2 (800 nM); and reaction buffer components (specified in the previous subsection). The reaction was performed as described in the previous subsection. The raw data (kinetic curves) were obtained in three independent experiments and statistically processed with OriginPro 8.6.0 software. […]
F) Graphical representation in double reciprocal plots. The inhibitor concentrations (µM) are indicated right to each panel.
Figure S3. Graphical representation of inhibition type determination for PARP1 and PARP2 with selected compounds.
The Ki and Ki(2) values presented in Table 2 in the main text and Table S1 were calculated using the equations:
Ki = Ci⁄ Ki (2) = CiV Vmax ∗ൗ−1
ቂ(Vmax Km )൘ቃ(Vmax ∗ Km ∗)⁄ −1 where Vmax (Vmax*) – maximal reaction velocity in th e absence (presence) of inhibitor; Km (Km*) – Michaelis constant in the absence (presence) of inhibitor; Ci – the inhibitor concentration.
(also on this page, place not known: Ci )⁄ (Vmax ∗ )⁄൘ቃ − Ki(2) Ci V ∗ൗ− 1 the Vmax KM 3000 0 1 0 250 [ 32 P]ADP-ribose, counts x 10 -3 NAD + ,)
(1 picture or pasted object on this page, not shown here)

[2] = biological target: T2, PARP1-DNA complex (Homo sapiens, UniProt P09874); assay: Fluorescence anisotropy titration of FAM-labeled gap-DNA with PARP1; type: binding; details: 120 µM inhibitor, absence vs presence
T2 construct: made in house; host or cells: insect cells
T2 sequence (P09874 whole entry, one chain of several): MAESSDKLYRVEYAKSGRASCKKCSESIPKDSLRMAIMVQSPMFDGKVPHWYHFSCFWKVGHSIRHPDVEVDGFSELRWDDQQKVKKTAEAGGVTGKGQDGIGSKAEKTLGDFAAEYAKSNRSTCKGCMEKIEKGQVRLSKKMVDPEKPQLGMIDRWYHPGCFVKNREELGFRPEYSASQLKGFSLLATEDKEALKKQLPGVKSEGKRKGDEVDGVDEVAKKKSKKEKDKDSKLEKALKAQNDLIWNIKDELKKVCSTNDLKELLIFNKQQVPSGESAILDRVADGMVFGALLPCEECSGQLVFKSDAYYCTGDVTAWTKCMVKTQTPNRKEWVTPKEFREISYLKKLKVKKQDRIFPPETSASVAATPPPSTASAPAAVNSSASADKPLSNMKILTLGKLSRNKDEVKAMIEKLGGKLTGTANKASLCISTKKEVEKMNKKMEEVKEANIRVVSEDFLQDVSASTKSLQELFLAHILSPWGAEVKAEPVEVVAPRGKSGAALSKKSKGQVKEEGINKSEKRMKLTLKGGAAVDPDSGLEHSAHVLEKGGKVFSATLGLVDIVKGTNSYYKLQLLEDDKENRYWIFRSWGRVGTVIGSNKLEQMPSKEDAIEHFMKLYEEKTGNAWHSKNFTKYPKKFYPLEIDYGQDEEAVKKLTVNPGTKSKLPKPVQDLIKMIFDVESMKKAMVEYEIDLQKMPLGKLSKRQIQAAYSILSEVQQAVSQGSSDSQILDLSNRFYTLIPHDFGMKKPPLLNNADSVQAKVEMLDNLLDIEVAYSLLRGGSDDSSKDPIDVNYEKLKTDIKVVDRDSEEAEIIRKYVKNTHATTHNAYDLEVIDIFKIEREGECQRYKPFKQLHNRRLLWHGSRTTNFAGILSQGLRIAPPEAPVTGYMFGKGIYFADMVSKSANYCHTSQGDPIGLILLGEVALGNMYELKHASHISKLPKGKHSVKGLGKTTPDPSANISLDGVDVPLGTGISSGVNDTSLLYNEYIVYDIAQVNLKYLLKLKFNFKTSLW
Procedure: (§3) Fluorescence anisotropy measurements of FAM-labeled DNA were performed in the absence and presence of various concentrations of PARP1/PARP2 with or without sub-saturating concentrations of an inhibitor. […] The averaged values were used for the final plot, and EC50 values were determined with MARS Data Analysis software version 3.00 (BMG LABTECH, Ortenberg, Germany). The data were plotted (F vs. C) and fitted to a four-parameter equation, F = F0 + (F∞ − F0)/[1 + (EC50/C)^n], where F is the measured fluorescence anisotropy of a solution containing the labeled DNA at a given concentration (C) of protein, F0 is the fluorescence anisotropy of the solution of the labeled DNA alone, F∞ is the fluorescence anisotropy of the labeled DNA saturated with the protein, EC50 is the concentration of the protein where F − F0 = (F∞ − F0)/2, and n is the Hill coefficient, which denotes the slope of the nonlinear curve. The apparent rate constants (kobs values) of dissociation of the PARP1 (PARP2)-DNA complex during the PARylation reaction performed in the absence or presence of an inhibitor were estimated by fluorescence anisotropy measurements, as described previously. […] The kinetic data were fitted to an exponential curve to calculate kobs with MARS Data Analysis software. […]

[3] = biological target: T2, PARP1-DNA complex; assay: AutoPARylation-induced dissociation of the PARP1-DNA complex (fluorescence anisotropy kinetics); type: biochemical; details: 120 µM H2N-Mor-T or 400 nM olaparib
Procedure: as §3

[4] = biological target: T3, PARP2 (Mus musculus, UniProt O88554); assay: Steady-state kinetic analysis of the PARP2 enzymatic reaction; type: biochemical, murine
T3 construct: made in house; host or cells: insect cells
T3 sequence (O88554 whole entry): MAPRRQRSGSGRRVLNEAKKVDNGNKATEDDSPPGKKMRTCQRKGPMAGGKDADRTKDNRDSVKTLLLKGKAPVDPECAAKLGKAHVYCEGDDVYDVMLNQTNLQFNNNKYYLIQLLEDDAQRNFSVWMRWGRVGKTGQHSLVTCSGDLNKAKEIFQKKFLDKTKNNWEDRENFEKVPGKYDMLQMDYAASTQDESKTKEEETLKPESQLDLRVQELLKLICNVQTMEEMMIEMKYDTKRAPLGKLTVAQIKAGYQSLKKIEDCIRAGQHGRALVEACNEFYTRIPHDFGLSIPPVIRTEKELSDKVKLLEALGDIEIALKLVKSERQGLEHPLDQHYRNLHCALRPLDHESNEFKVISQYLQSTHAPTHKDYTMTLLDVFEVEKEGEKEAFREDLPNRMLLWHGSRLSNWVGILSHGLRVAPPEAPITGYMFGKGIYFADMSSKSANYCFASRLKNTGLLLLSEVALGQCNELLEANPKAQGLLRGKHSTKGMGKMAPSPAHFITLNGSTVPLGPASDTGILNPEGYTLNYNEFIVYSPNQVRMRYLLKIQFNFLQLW
Procedure: as §1, §2
F) Graphical representation in double reciprocal plots. […]
The Ki and Ki(2) values presented in Table 2 in the main text and Table S1 were calculated using the equations: […]

[5] = biological target: T4, PARP2-DNA complex (Mus musculus, UniProt O88554); assay: Fluorescence anisotropy titration of FAM-labeled gap-DNA with PARP2; type: binding, murine; details: 240 µM inhibitor
T4 construct: made in house; host or cells: insect cells
T4 sequence (O88554 whole entry, one chain of several): as the sequence (O88554 whole entry) above
Procedure: as §3

[6] = biological target: T4, PARP2-DNA complex; assay: AutoPARylation-induced dissociation of the PARP2-DNA complex (fluorescence anisotropy kinetics); type: biochemical, murine; details: 240 µM H2N-Mor-U(I) or 800 nM olaparib
Procedure: as §3

[7] = mixed-type inhibition, read-out: Ki (affinity for the free enzyme)
[8] = read-out: Ki(2) (affinity for the enzyme complex with NAD+ substrate)

T1 sequence (P09874 whole entry): as the sequence (P09874 whole entry, one chain of several) above

## Cc1cn([C@H]2CNC[C@@H](CN)O2)c(=O)[nH]c1=O [Compound 8]
[1]
  Type of inhibition: mixed-type inhibition
[1]; [7]
  Ki: 12 ± 2 µM
[1]; [8]
  Ki: 40 ± 8 µM
[2]
  Effect of inhibitor on EC50 of the PARP1–DNA complex: almost the same
[3]; 0.4 mM NAD+
  Inhibition of dissociation of the PARP1 complex with DNA: ~ 2 fold
[3]; 1.4 mM NAD+
  Inhibition of dissociation of the PARP1 complex with DNA: ~ 1.5 fold

## NC[C@@H]1CNC[C@H](n2cc(I)c(=O)[nH]c2=O)O1 [Compound 14]
[1]
  Type of inhibition: mixed-type inhibition
[1]; [7]
  Ki: 15 ± 3 µM
[1]; [8]
  Ki: 50 ± 10 µM
[4]; Vmax decreased, KM increased
  Type of inhibition: mixed-type inhibition
[4]; [7]
  Ki: 120 ± 23 µM
[4]; [8]
  Ki: 400 ± 70 µM
[5]
  Effect of inhibitor on the stability of the PARP2–DNA complex: No statistically significant effect
[6]; 0.4 mM NAD+
  Inhibition of dissociation of the PARP2 complex with DNA: ~ 2 fold
[6]; 1.4 mM NAD+
  Inhibition of dissociation of the PARP2 complex with DNA: ~ 1.5 fold

Source: article PMC11640836, “Aminomethylmorpholino Nucleosides as Novel Inhibitors of PARP1 and PARP2: Experimental and Molecular Modeling Analyses of Their Selectivity and Mechanism of Action” (International Journal of Molecular Sciences, 2024)
